Like-named read-outs stand apart in the source and are kept apart here. Values belong to the molecule of their own block, whether it stands above or below them. Peptide text beside a SMILES is read from it.
Legend:
[1] = target: T1, rat SSTR-5 (Rattus norvegicus, UniProt P30938); settings: Table 22; known SST analogs, literature values; read-out: IC50 value rSSTR 5; cited from earlier work
T1 sequence (P30938 1-363): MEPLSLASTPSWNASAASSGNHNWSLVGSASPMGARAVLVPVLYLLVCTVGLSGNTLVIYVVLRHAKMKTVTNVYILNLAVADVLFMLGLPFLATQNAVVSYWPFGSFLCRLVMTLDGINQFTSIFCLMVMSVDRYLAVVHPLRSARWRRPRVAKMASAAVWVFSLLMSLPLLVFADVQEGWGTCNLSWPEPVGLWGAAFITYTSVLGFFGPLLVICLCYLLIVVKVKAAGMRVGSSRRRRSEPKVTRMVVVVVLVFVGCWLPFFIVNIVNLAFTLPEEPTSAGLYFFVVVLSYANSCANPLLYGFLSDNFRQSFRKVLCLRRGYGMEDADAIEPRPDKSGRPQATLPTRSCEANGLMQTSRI

[2] = In vitro biostability in human serum (HPLC); type: in vitro ADME; settings: 37° C.
Protocol: Analogs are tested for stability by their resistance to enzymatic degradation by incubation in serum or in tissue homogenate, separation of the proteins and recording of the peptide peaks by HPLC before and after incubation. […] These peaks are separated and characterized by mass spectrometry, N-terminal sequence and comparison to purified peptide peaks.
The assay was based on HPLC determination of peptide degradation as a function of time in serum at 37° C.

[3] = target: SSTR-3 (Homo sapiens, UniProt P32745); test: Radioligand binding, inhibition of 125I-Tyr11-SRIF binding to cloned SSTR-3
Protocol: (§1) The somatostatin analogs were tested for their potency in inhibition of the binding of ^125 I-Tyr^11 -SRIF (based on the method described by Raynor et. al., Molecular Pharmacology 43, 838-844, 1993) to membrane preparations expressing the transmembranal somatostatin receptors (SSTR-1,2,3,4 or 5). The receptor preparations used for these tests were either from the cloned receptors selectively and stably expressed in Chinese Hamster Ovary (CHO) cells or from cell lines naturally expressing the SSTRs. […] The binding reactions were filtered, the filters were washed and the bound radioactivity was counted in gamma counter. […] In order to validate positive signals of the binding tests, and to eliminate non-specific signals, samples of irrelevant peptides, such as GnRH, that were synthesized and handled using the same procedures, were tested in the same assays as negative control samples.

[4] = target: T1, rat SSTR-5; test: Radioligand binding, inhibition of 125I-Tyr11-SRIF binding to cloned rat SSTR-5
Protocol: as §1

[5] = Lack of toxicity in rats; type: in vivo, rat; settings: for respiratory disturbances, stereotyped behavior, muscle tone: rats observed for 4 hours post administration
Protocol: PTR 3013 was not toxic to the rats even with doses of 4 mg/kg. These two doses are several orders of magnitude higher than those needed to elicit the desired endocrine effect. The peptides dissolved in saline produced no untoward side effects on the central nervous system, cardiovascular system, body temperature, nor on the periphery of the animals.

[6] = target: SSTR-2; test: Radioligand binding, inhibition of 125I-Tyr11-SRIF binding to cloned SSTR-2
Protocol: as §1

[7] = target: human SSTR-5 (Homo sapiens, UniProt P35346); test: Radioligand binding, inhibition of 125I-Tyr11-SRIF binding to cloned human SSTR-5; settings: cloned human receptor
Protocol: as §1

[8] = tested on: Growth Hormone (GH) release; test: Inhibition of growth hormone release in rats; type: in vivo, rat; settings: Sprague-Dawley male rats, 10 mg/kg subcutaneously, versus saline
Protocol: In vivo determination of the pharmacodynamic properties of cyclic peptide SST analogs was carried out in rats, according to known procedures. Inhibition of Growth Hormone (GH) release as a result of peptide administration was measured in Sprague-Dawley male rats. […] Time course profiles for GH release under constant experimental conditions were measured.
Adult male Sprague-Dawley rats, specific pathogen free (SPF), weighing 200-350 g, were maintained on a constant light-dark cycle (light from 8:00 to 20:00 h), temperature (21±3° C.), and relative humidity (55±10%). Laboratory chow and tap water were available ad libitum. On the day of the experiment, rats were anesthetized with pentobarbitone (50 mg/kg). […] A single blood sample (0.6 ml) was taken from the exposed cannulated jugular vein for the determination of the basal GH levels (-15 min.). Immediately thereafter the appropriate peptide treatment was administered. […] A physiological saline solution (0.9% NaCl) was administered as a control. All peptides were administered subcutaneously in a final volume of 0.2 ml. Further sampling was carried out at 15, 30, 60, and 90 minutes after peptide administration. […]
Rat growth hormone (rGH) [^125 I] levels were determined by means of a radioimmunoassay kit (Amersham). […] All samples were measured in duplicate.

[9] = tested on: insulin release; test: Glucose induced insulin release in rats; type: in vivo, rat
[10] = tested on: plasma amylase release; test: Bombesin stimulated plasma amylase release in rats; type: in vivo, rat
Protocol: (§2) Inhibition of either insulin or amylase release has been reported (Reisine and Bell, ibid.) to be highly correlated with affinity to the SST receptor subtype SSTR-5, while i inhibition of pituitary growth hormone (GH) release, pancreatic glucagon, and gastric acid secretion were SSTR-2 mediated. […] These doses were compared to the synthetic analog SMS-201 995 administered at a dose of 10 μg/kg.
(§3) Male Wister rats (weighing 200-220 g) were anaesthetized with pentobarbital (60 mg/kg) by the intraperitoneal (IP) route. The animals were allowed free access to food and water until 18 h before experiment, when all food (but not the water) was withdrawn. Furthermore the animals were housed in cages with wide mesh wire bottoms to prevent coprophagia (feeding on excrement).
(§4) After cannulation, a 0.7 ml sample of blood was drawn from the jugular vein, and transferred into an Eppendorf tube containing 20 IU heparin solution 5000 IU/ml. One minute later the peptides were administered subcutaneously (SC in 0.2 ml of 0.9% NaCl). Control rats were pretreated with 0.2 ml of 0.9% NaCl. At time 0 (5 min. after collection of baseline blood sample-1) a bombesin infusion (50 nmol/kg/hr) was started in all animals. Additional blood samples were collected at constant time intervals of 60, 90 and 120 min. during bombesin infusion.
(§5) Blood samples were collected into ice-cold tubes containing heparin (20 IU/ml) and were centrifuged (1500 g×10 min.). Plasma samples were frozen and kept at -20° C. until assayed for amylase and lipase.
Amylase levels were measured in plasma with the commercial (Raichem™) Amylase reagent.

[11] = tested on: plasma lipase release; test: Bombesin stimulated plasma lipase release in rats; type: in vivo, rat
Protocol: as §2, §3, §4, §5
Lipase levels were measured in plasma with a commercial kit (Randox™).

[12] = tested on: somatostatin receptors (SSTR-1,2,3,4 or 5); test: Radioligand binding assay, negative control peptides; settings: irrelevant peptides tested in the same assays
Protocol: as §1

[13] = Table 21, inhibition of iodinated SRIF-14 binding, CHO cells, tested at 10^-6, 10^-7, 10^-8 M, read-out: IC50 SSTR-2

Chain of SSTR-3 (P32745 whole entry, species assumed): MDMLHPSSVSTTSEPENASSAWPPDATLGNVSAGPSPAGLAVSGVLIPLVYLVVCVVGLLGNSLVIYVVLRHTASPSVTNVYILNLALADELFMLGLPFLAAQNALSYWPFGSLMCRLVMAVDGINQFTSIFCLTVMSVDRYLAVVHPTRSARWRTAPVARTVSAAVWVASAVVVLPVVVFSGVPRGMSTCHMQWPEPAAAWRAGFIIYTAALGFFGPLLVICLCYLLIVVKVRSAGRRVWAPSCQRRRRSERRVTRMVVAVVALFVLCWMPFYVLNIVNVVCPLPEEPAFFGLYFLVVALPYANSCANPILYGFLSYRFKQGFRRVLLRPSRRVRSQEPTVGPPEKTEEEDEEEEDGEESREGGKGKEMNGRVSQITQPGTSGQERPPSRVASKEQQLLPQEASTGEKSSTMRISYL
Chain of human SSTR-5 (P35346 whole entry): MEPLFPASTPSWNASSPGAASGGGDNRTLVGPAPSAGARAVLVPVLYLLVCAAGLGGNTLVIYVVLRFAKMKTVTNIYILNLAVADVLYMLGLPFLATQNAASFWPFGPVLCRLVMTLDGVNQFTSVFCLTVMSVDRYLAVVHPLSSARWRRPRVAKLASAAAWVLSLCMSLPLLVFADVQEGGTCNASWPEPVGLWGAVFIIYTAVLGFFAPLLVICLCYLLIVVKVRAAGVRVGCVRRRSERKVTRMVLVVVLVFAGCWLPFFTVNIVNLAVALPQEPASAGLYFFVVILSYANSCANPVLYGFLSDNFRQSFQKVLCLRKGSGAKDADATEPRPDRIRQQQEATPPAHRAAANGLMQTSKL

Molecule: C[C@@H](O)[C@@H]1NC(=O)[C@H](CCCCN)NC(=O)[C@@H](Cc2c[nH]c3ccccc23)NC(=O)[C@H](Cc2ccccc2)NC(=O)[C@@H](NC(=O)[C@H](N)Cc2ccccc2)CSSC[C@@H](C(=O)N[C@H](CO)[C@@H](C)O)NC1=O [Octreotide, DPhe^5 -cyclo(Cys^6 -Phe^7 -DTrp^5 -Lys^9 -Thr^10 -Cys^11)-Thr^12 -ol]
IC50 [1]: 0.2 nM

Molecule: C[C@@H](O)[C@H](NC(=O)CN1CCNC(=O)CCN(C(=O)[C@H](N)Cc2ccccc2)CC(=O)N[C@@H](Cc2ccccc2)C(=O)N[C@H](Cc2c[nH]c3ccccc23)C(=O)N[C@@H](CCCCN)C(=O)N[C@@H]([C@@H](C)O)C1=O)C(N)=O [PTR 3002] (HELM PEPTIDE1{[dF].[O=C(CN(CCC(=O)[*:3])[*:1])[*:2]].F.[dW].K.T.[O=C(CN(CCN[*:3])[*:1])[*:2]].T.[am]}$PEPTIDE1,PEPTIDE1,2:R3-7:R3$$$V2.0)
in vitro biostability (peptide degradation as a function of time) [2]: as stable as Octreotide, is more stable than the corresponding non-cyclic structure, and is much more stable than SRIF

IC50 [3]: > 10000 nM
IC50 [4]: > 2000 nM
Molecule: C[C@@H](O)[C@H](NC(=O)CN1CCCNC(=O)CN(C(=O)[C@H](N)Cc2ccccc2)CC(=O)N[C@@H](Cc2ccccc2)C(=O)N[C@H](Cc2c[nH]c3ccccc23)C(=O)N[C@@H](CCCCN)C(=O)N[C@@H]([C@@H](C)O)C1=O)C(N)=O [PTR 3004]

Molecule: C[C@@H](O)[C@H](NC(=O)CN1CCCNC(=O)CCN(C(=O)[C@H](N)Cc2ccccc2)CC(=O)N[C@@H](Cc2ccccc2)C(=O)N[C@H](Cc2c[nH]c3ccccc23)C(=O)N[C@@H](CCCCN)C(=O)N[C@@H]([C@@H](C)O)C1=O)C(N)=O [PTR 3007] (HELM PEPTIDE1{[dF].[O=C(CN(CCC(=O)[*:3])[*:1])[*:2]].F.[dW].K.T.[O=C(CN(CCCN[*:3])[*:1])[*:2]].T.[am]}$PEPTIDE1,PEPTIDE1,2:R3-7:R3$$$V2.0)
IC50 [3]: > 10000 nM
IC50 [4]: > 2000 nM
respiratory disturbances, stereotyped behavior, muscle tone [5]: no respiratory disturbances

Molecule: CC(=O)N1CCCNC(=O)CCN(CC(=O)N[C@@H](Cc2ccccc2)C(=O)N[C@H](C(N)=O)[C@@H](C)O)C(=O)[C@H](CCCCN)NC(=O)[C@@H](Cc2c[nH]c3ccccc23)NC(=O)[C@H](Cc2ccccc2)NC(=O)C1 [PTR 3013] (HELM PEPTIDE1{[ac].[O=C(CN(CCCN[*:3])[*:1])[*:2]].F.[dW].K.[O=C(CN(CCC(=O)[*:3])[*:1])[*:2]].F.T.[am]}$PEPTIDE1,PEPTIDE1,2:R3-6:R3$$$V2.0)
IC50 [6, 13]: > 10000 nM
respiratory disturbances, stereotyped behavior, muscle tone [5]: no respiratory disturbances
toxicity ([5]; rats, doses of 4 mg/kg): not toxic

IC50 [6, 13]: > 10000 nM
Molecule: C[C@@H](O)[C@H](NC(=O)[C@H](Cc1ccccc1)NC(=O)CN1CCNC(=O)CCN(C(=O)[C@H](N)Cc2ccccc2)CC(=O)N[C@@H](Cc2ccccc2)C(=O)N[C@H](Cc2c[nH]c3ccccc23)C(=O)N[C@@H](CCCCN)C1=O)C(N)=O [PTR 3019] (HELM PEPTIDE1{[dF].[O=C(CN(CCC(=O)[*:3])[*:1])[*:2]].F.[dW].K.[O=C(CN(CCN[*:3])[*:1])[*:2]].F.T.[am]}$PEPTIDE1,PEPTIDE1,2:R3-6:R3$$$V2.0)

binding to SSTR-2, in words [6]: does not bind
IC50 [6, 13]: 500 nM
IC50 ([6]; text summary of Example 85 binding data, read-out: affinity to SSTR-2): > 1000 nM
affinity to human SSTR-5, in words [7]: high affinity
Molecule: CC(C)[C@@H]1NC(=O)[C@H](CCCCN)NC(=O)[C@@H](Cc2c[nH]c3ccccc23)NC(=O)[C@H](Cc2ccc(O)cc2)NC(=O)[C@H](Cc2ccccc2)NCCNC(=O)CCCN([C@@H](Cc2ccccc2)C(=O)N[C@H](C(N)=O)[C@@H](C)O)C1=O [PTR 3046, cyclo(PheN2^6 -Tyr^7 -DTrp^8 -Lys^9 -Val^10 -PheC3^11)-Thr^12 -NH2] (HELM PEPTIDE1{[O=C([C@H](Cc1ccccc1)NCCN[*:3])[*:2]].Y.[dW].K.V.[O=C([C@H](Cc1ccccc1)N(CCCC(=O)[*:3])[*:1])[*:2]].T.[am]}$PEPTIDE1,PEPTIDE1,1:R3-6:R3$$$V2.0)
inhibition of growth hormone release [8]: not significantly different from saline
decrease in insulin release ([9]; Wister rats, 7 μg/kg subcutaneously, glucose 0.5 g/kg IV, versus control rats, p<0.05): 43%
potency on insulin release relative to Octreotide ([9]; in vivo, from present study and manufacturer's ED 50 of Octreotide): 4 times
inhibition of bombesin induced release of plasma amylase ([10]; 3 μg/kg SC, 90 min.): 31%
inhibition of bombesin induced release of plasma amylase ([10]; 3 μg/kg SC, 120 min.): 23%
inhibition of bombesin induced release of plasma amylase ([10]; 25 μg/kg SC, 90 min.): 60%
inhibition of bombesin induced release of plasma amylase ([10]; 25 μg/kg SC, 120 min.): 52%
inhibition of bombesin-stimulated lipase secretion ([11]; 3 μg/kg SC, 90 min.): 33%
inhibition of bombesin-stimulated lipase secretion ([11]; 3 μg/kg SC, 120 min.): 26%
inhibition of bombesin-stimulated lipase secretion ([11]; 12.5 μg/kg SC, 90 min.): 30%
inhibition of bombesin-stimulated lipase secretion ([11]; 12.5 μg/kg SC, 120 min.): 25%
inhibition of bombesin-stimulated lipase secretion ([11]; 25 μg/kg SC, 90 min.): 51%
inhibition of bombesin-stimulated lipase secretion ([11]; 25 μg/kg SC, 120 min.): 35%

Molecule: DPhe^5 -cyclo(Cys^6 -Tyr^7 -DTrp^8 -Lys^9 -Val^10 -Cys^11)-Trp^12 -NH2 [RC-160]
IC50 [1]: 0.2 nM

binding activity of negative control samples [12]: no binding activity
Molecule: GnRH: irrelevant peptide tested as negative control sample

— patent US5770687A, “Comformationally constrained backbone cyclized somatostatin analogs” (Peptor Limited, priority 1996, dated 1998)
